The subject of this test is BDF1 mice, P388 leukemia ip, median survival T/C. The test is described as follows: NCI In Vivo Anticancer Drug Screen. Data for tumor model P388 Leukemia (intraperitoneal) in B6D2F1 (BDF1) mice. Particulars: endpoint: median survival time, higher = longer survival. In short, it runs like this:
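Read-out is survival of treated animals expressed relative to the vehicle group, as a T/C ratio.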

Setting [1] is: dose: 1.0 mg/kg/injection, schedule: Q01DX009 (ip), vehicle: saline.
Where [2] appears, read: dose: 2.0 mg/kg/injection, schedule: Q01DX009 (ip), vehicle: saline.
Where [3] appears, read: dose: 50.0 mg/kg/injection, schedule: Q01DX009 (ip), vehicle: saline with Tween-80.
[4] abbreviates: dose: 100.0 mg/kg/injection, schedule: Q01DX009 (ip), vehicle: saline with Tween-80.
Where [5] appears, read: dose: 200.0 mg/kg/injection, schedule: Q01DX009 (ip), vehicle: saline with Tween-80.
The mark [6] stands for this setting: dose: 100.0 mg/kg/injection, schedule: Q04DX003 (ip), vehicle: saline.
[7] abbreviates: dose: 200.0 mg/kg/injection, schedule: Q04DX003 (ip), vehicle: saline.
Where [8] appears, read: dose: 400.0 mg/kg/injection, schedule: Q04DX003 (ip), vehicle: saline.

Values joined by “and” are separate entries in the source; they are usually repeats but may differ in a detail not shown here. Equal values may be shown once. Inconclusive results and toxic doses are left out.

Take `OC(C1CO1)C(O)C1CO1` (stereo not drawn): the T/C was 282 % of control under setting [1]; 168 % of control under setting [2]; 190 % of control (dose: 2.5 mg/kg/injection, schedule: Q01DX009 (ip), vehicle: saline); 260 % of control (dose: 5.0 mg/kg/injection, schedule: Q01DX009 (ip), vehicle: saline); 189 % of control (dose: 6.7 mg/kg/injection, schedule: Q01DX001 (ip), vehicle: saline); 250 % of control (dose: 6.7 mg/kg/injection, schedule: Q04DX003 (ip), vehicle: saline). Further, the T/C by setting is: (dose: 10.0 mg/kg/injection, schedule: Q01DX001 (ip), vehicle: saline) 336 % of control and 209 % of control and 219 % of control; (dose: 10.0 mg/kg/injection, schedule: Q01DX009 (ip), vehicle: saline) 110 % of control; (dose: 10.0 mg/kg/injection, schedule: Q04DX003 (ip), vehicle: saline) 413 % of control; (dose: 12.5 mg/kg/injection, schedule: Q01DX001 (ip), vehicle: saline) 231 % of control and 292 % of control and 333 % of control; (dose: 12.5 mg/kg/injection, schedule: Q04DX003 (ip), vehicle: saline) 387 % of control; (dose: 15.0 mg/kg/injection, schedule: Q01DX001 (ip), vehicle: saline) 280 % of control and 292 % of control and 318 % of control.

With `COc1ccc(OC)c(C(C)(O)CC(=O)O)c1` (stereo not drawn), the T/C is, setting by setting: under setting [3], 89 % of control; under setting [4], 107 % of control; (dose: 100.0 mg/kg/injection, schedule: Q04DX003 (ip), vehicle: saline with Tween-80) 112 % of control; under setting [5], 105 % of control; (dose: 200.0 mg/kg/injection, schedule: Q04DX003 (ip), vehicle: saline with Tween-80) 103 % of control; (dose: 400.0 mg/kg/injection, schedule: Q01DX009 (ip), vehicle: saline with Tween-80) 90 % of control. Besides, the T/C (dose: 400.0 mg/kg/injection, schedule: Q04DX003 (ip), vehicle: saline with Tween-80) is 117 % of control.

Turning to `C[C@]12C=CC(=O)C=C1CC[C@@H]1[C@@H]2C(=O)C[C@@]2(C)[C@H]1CC[C@]2(O)C(=O)CO`, the T/C (dose: 0.8 mg/kg/injection, schedule: Q01DX009 (ip), vehicle: carboxymethylcellulose (CMC)) is 90 % of control; the T/C (dose: 1.6 mg/kg/injection, schedule: Q01DX009 (ip), vehicle: carboxymethylcellulose (CMC)) is 99 % of control; the T/C (dose: 3.12 mg/kg/injection, schedule: Q01DX009 (ip), vehicle: carboxymethylcellulose (CMC)) is 99 % of control; the T/C (dose: 6.25 mg/kg/injection, schedule: Q01DX009 (ip), vehicle: carboxymethylcellulose (CMC)) is 89 % of control and 103 % of control; the T/C (dose: 6.25 mg/kg/injection, schedule: Q03HX008 (ip), vehicle: saline) is 107 % of control; the T/C (dose: 6.25 mg/kg/injection, schedule: Q03HX016 (ip), vehicle: saline) was 100 % of control. The T/C reads like this: (dose: 6.25 mg/kg/injection, schedule: Q03HX024 (ip), vehicle: saline) 100 % of control; (dose: 12.5 mg/kg/injection, schedule: Q01DX009 (ip), vehicle: carboxymethylcellulose (CMC)) 87 % of control and 89 % of control; (dose: 12.5 mg/kg/injection, schedule: Q03HX008 (ip), vehicle: saline) 100 % of control; (dose: 12.5 mg/kg/injection, schedule: Q03HX016 (ip), vehicle: saline) 100 % of control; (dose: 12.5 mg/kg/injection, schedule: Q03HX024 (ip), vehicle: saline) 87 % of control; (dose: 25.0 mg/kg/injection, schedule: Q03HX008 (ip), vehicle: saline) 100 % of control. In addition, the T/C is 100 % of control (dose: 25.0 mg/kg/injection, schedule: Q03HX016 (ip), vehicle: saline); 87 % of control (dose: 25.0 mg/kg/injection, schedule: Q03HX024 (ip), vehicle: saline); 113 % of control (dose: 44.0 mg/kg/injection, schedule: Q04DX003 (sc), vehicle: Klucel (hydroxypropylcellulose) (HPC)); 107 % of control (dose: 50.0 mg/kg/injection, schedule: Q01DX001 (ip), vehicle: saline); 90 % of control and 93 % of control (dose: 50.0 mg/kg/injection, schedule: Q01DX009 (ip), vehicle: carboxymethylcellulose (CMC)); 100 % of control (dose: 50.0 mg/kg/injection, schedule: Q03HX008 (ip), vehicle: saline). The T/C by setting is: (dose: 50.0 mg/kg/injection, schedule: Q03HX016 (ip), vehicle: saline) 107 % of control; (dose: 50.0 mg/kg/injection, schedule: Q03HX024 (ip), vehicle: saline) 87 % of control; (dose: 50.0 mg/kg/injection, schedule: Q04DX003 (ip), vehicle: saline) 93 % of control; (dose: 50.0 mg/kg/injection, schedule: Q08DX002 (ip), vehicle: saline) 87 % of control; (dose: 67.0 mg/kg/injection, schedule: Q04DX003 (sc), vehicle: Klucel (hydroxypropylcellulose) (HPC)) 114 % of control; (dose: 100.0 mg/kg/injection, schedule: Q01DX001 (ip), vehicle: saline) 114 % of control. Moreover, the T/C reads like this: (dose: 100.0 mg/kg/injection, schedule: Q03HX008 (ip), vehicle: saline) 100 % of control; (dose: 100.0 mg/kg/injection, schedule: Q03HX016 (ip), vehicle: saline) 114 % of control; (dose: 100.0 mg/kg/injection, schedule: Q03HX024 (ip), vehicle: saline) 87 % of control; under setting [6], 106 % of control; (dose: 100.0 mg/kg/injection, schedule: Q04DX003 (sc), vehicle: Klucel (hydroxypropylcellulose) (HPC)) 113 % of control; (dose: 100.0 mg/kg/injection, schedule: Q08DX002 (ip), vehicle: saline) 87 % of control. The T/C (dose: 200.0 mg/kg/injection, schedule: Q01DX001 (ip), vehicle: saline) is 114 % of control; the T/C under setting [7] is 100 % of control; the T/C (dose: 200.0 mg/kg/injection, schedule: Q08DX002 (ip), vehicle: saline) is 100 % of control; the T/C (dose: 400.0 mg/kg/injection, schedule: Q01DX001 (ip), vehicle: saline) was 121 % of control; the T/C under setting [8] is 106 % of control; the T/C (dose: 400.0 mg/kg/injection, schedule: Q08DX002 (ip), vehicle: saline) is 87 % of control. The T/C (dose: 800.0 mg/kg/injection, schedule: Q01DX001 (ip), vehicle: saline) was 121 % of control; the T/C (dose: 800.0 mg/kg/injection, schedule: Q04DX003 (ip), vehicle: saline) is 106 % of control; the T/C (dose: 800.0 mg/kg/injection, schedule: Q08DX002 (ip), vehicle: saline) was 100 % of control.

In the case of `CSc1nc(Cl)cc(N2CC2)n1`, the T/C runs as follows: (dose: 0.19 mg/kg/injection, schedule: Q04DX003 (ip), vehicle: saline) 104 % of control; (dose: 0.39 mg/kg/injection, schedule: Q01DX009 (ip), vehicle: saline) 95 % of control; (dose: 0.39 mg/kg/injection, schedule: Q04DX003 (ip), vehicle: saline) 109 % of control; (dose: 0.5 mg/kg/injection, schedule: Q01DX009 (ip), vehicle: saline) 91 % of control; (dose: 0.78 mg/kg/injection, schedule: Q01DX009 (ip), vehicle: saline) 100 % of control; (dose: 0.78 mg/kg/injection, schedule: Q04DX003 (ip), vehicle: saline) 100 % of control. Besides, the T/C is, setting by setting: under setting [1], 116 % of control; under setting [2], 95 % of control; (dose: 3.6 mg/kg/injection, schedule: Q04DX003 (ip), vehicle: saline) 100 % of control.

With `CC1(C)CC(=O)C(C(=O)Nc2ccc(Cl)cc2)C(=O)C1`, the T/C under setting [3] is 98 % of control, the T/C under setting [4] was 93 % of control and the T/C under setting [5] was 89 % of control.

As for `O=[N+]([O-])c1ccc(N/N=C\c2ccc3ccccc3n2)cc1`, the T/C reads like this: (dose: 100.0 mg/kg/injection, schedule: Q01DX009 (ip), vehicle: saline) 104 % of control; under setting [6], 118 % of control; (dose: 200.0 mg/kg/injection, schedule: Q01DX009 (ip), vehicle: saline) 109 % of control; under setting [7], 104 % of control; under setting [8], 109 % of control.

On to `O=C1NC(O)c2cc(CO)ccc2O1` (stereo not drawn), for which the T/C is, setting by setting: (dose: 50.0 mg/kg/injection, schedule: Q01DX005 (ip), vehicle: saline with Tween-80) 100 % of control; (dose: 100.0 mg/kg/injection, schedule: Q01DX005 (ip), vehicle: saline with Tween-80) 104 % of control; (dose: 200.0 mg/kg/injection, schedule: Q01DX005 (ip), vehicle: saline with Tween-80) 109 % of control.
